1 molecule from publication PMC5711494, “Sterol methyltransferase a target for anti-amoeba therapy: towards transition state analog and suicide substrate drug design” (Journal of Lipid Research, 2017) can be followed below.

Experiment [1] addresses Ac24-SMT (sterol 24-methyltransferase, SMT1) (Acanthamoeba castellanii, UniProt L8GNG7). The experiment can be described thus: Inhibition of recombinant Ac24-SMT assayed with native substrate cycloartenol and [methyl-3H3]SAM. Type of experiment: biochemical. The settings on record: read-out: Ki against 24-SMT (competitive inhibitor); assayed with natural substrate. How it is done: The SMT constructs were transformed into competent BL21(DE3) cells and transformants selected against 100 µg/ml ampicillin. Expression of the SMT constructs and partial purification of the recombinant proteins followed the procedure described previously ([19]). Briefly, a single colony for 24-SMT and 28-SMT were grown overnight in an orbital shaker (250–300 rpm) at 37°C in Luria broth containing ampicillin and then reinoculated in fresh medium at 1 in 10 dilution. […] In one tube, cells were induced by addition of isopropyl thio-galactoside at a final concentration of 1 mM and in the other tube, were un-induced. Cells were harvested 2 and 4 h after induction and an equal number of cells (as calculated by OD @600 nm) from induced (+) and un-induced (−) cultures were boiled with 1X Laemmli’s buffer and analyzed by SDS-PAGE (12%). […] Total protein concentrations were determined by Bradford dye-binding procedure with bovine γ-globulin as standard. […] Incubation mixtures were saponified with methanolic potassium hydroxide and extracted with hexane (3 × 1 ml) and concentrated to dryness providing the nonsaponifiable lipid fraction; radioactivity was determined by liquid scintillation counting. […] Controls containing radioactive SAM and no sterol used to background subtract radioactivity in these treatments was less than 500 dpm. […]

In experiment [2] the test system is Ac24-SMT. Nature of the experiment: Time-dependent inactivation of Ac24-SMT (Kitz and Wilson plot). Type of experiment: biochemical, Acanthamoeba castellanii. How it is done:
To show time-dependent inactivation, experiments were performed with a 100,000 g supernatant fraction containing the recombinant Ac24-SMT in two major steps. First, a preincubation experiment was established; to a 9 ml test tube containing DHL at the test concentrations (varied between 0 and 20 µM), 2.4 mg of total protein (ca. 160 µg SMT), 1.5 ml buffer, and a fixed concentration of SAM (100 µM) were added. The incubation was allowed to incubate for up to 20 min at 35°C. Second, at the time indicated, aliquots (20 µl) of the preincubation preparation were placed in a precooled (dry ice-ethanol) test tube to prevent catalysis. The frozen samples were then individually thawed and filtered three times with phosphate buffer to remove excess unbound inhibitor using Amicon ultracentrifugation filters. The remaining enzyme activity in each sample was determined by assaying each at saturating cycloartenol concentration (100 µM) and [methyl-^3H3] SAM (100 µM; 0.6 µC) under standard assay conditions for 1 h. The logarithmic percentage of remaining enzyme activity was plotted against the incubation time of the enzyme-inhibitor mixture to determine the half-life (T1/2) of inactivation. […] The point of intersection with the ordinate is the T1/2 at saturation from which the kinact can be calculated whereas the intercept along the X-axis gives the −1/Ki from which the Ki can be calculated.

Experiment [3] relates to Ac24-SMT. Nature of the experiment: Covalent labeling of Ac24-SMT with DHL and 3H-SAM, SDS-PAGE gel slice counting. Type of experiment: binding, Acanthamoeba castellanii. The settings on record: 45 min, 35°C, SDS-PAGE gel slices. How it is done: For 24-SMT labeling, partially pure recombinant enzyme obtained from 0.25 salt gradient fraction after Q-chromatography and desalted with buffer exchange (as reported in reference) was generated as a reference specimen of cloned SMT migrating at ∼39 kDa indicated by a protein ladder (Bio-Rad). Protein was stained with Coomassie Brilliant Blue R 250. […] After filtration and concentration, 22 µg total protein was loaded on 12% SDS-PAGE gel against a protein ladder (Bio-Rad) that ranged from 15 to 100 kDa. Next, five bands were excised from the gel corresponding to approximate molecular masses that range between 1) 15–25 kDa, 2) 25–35 KDa, 3) 35–45 kDa, 4) 45–55 kDa, and 5) 55–75 kDa, placed into a vial of 50% hydrogen peroxide, and left overnight at 60°C for digestion ([29]). To these vials was added scintillant and the radioactivity (^3H in dpm) measured by liquid scintillation counting.

The subject of experiment [4] is Acanthamoeba castellanii trophozoites (strain ATCC 30010). Nature of the experiment: Ac trophozoite growth inhibition and minimum amoebicidal concentration (trypan blue exclusion). As to conditions: 48 h incubation. It is filed as cell-based. How it is done:
Ac strain ATCC 30010 was inoculated (1 × 10^4 cells/ml) into tissue culture T-25 ml flasks, prepared with ATTC media 712 and cultured axenically in 5 ml medium at 25°C. Continuous cultures populated by trophozoites ([…]; the remaining cells were cysts) was maintained by sub-culturing 4–5 day growth arrested cells (1 × 10^6 cells/ml) into fresh medium. Steroidal inhibitor and azole susceptibility assays were performed in 24-well (4 × 6) microtiter plates (3 ml total). Trophozoite assay conditions and preparation of stock solutions made to 1 μg/10 μl and 1 μg/100 μl in DMSO through serial dilution to achieve final inhibitor concentrations of 64, 32, 16, 8, 4, 2, 1, 0.5, 0.25, 0.125, 0.0625, and 0.03125 µg/ml in 1% DMSO as reported previously for voriconazole incubated with Ac ([25]). Growth curves to evaluate treated trophozoites were initiated with 1 × 10^6 cells/ml and incubated for 48 h. Cell number was calculated with the use of a hemocytometer. The percentage of viable trophozoites following exposure to different concentrations of inhibitors was determined by the standard trypan blue exclusion method. Cells stained blue were considered nonviable. […] The IC50 of inhibitors against trophozoite growth was evaluated using GraphPad Prism with default setting (GraphPad Software Inc., CA).

Some results are limits rather than exact numbers.

Sequence of Ac24-SMT (sterol 24-methyltransferase, SMT1) (L8GNG7 entry or part of it): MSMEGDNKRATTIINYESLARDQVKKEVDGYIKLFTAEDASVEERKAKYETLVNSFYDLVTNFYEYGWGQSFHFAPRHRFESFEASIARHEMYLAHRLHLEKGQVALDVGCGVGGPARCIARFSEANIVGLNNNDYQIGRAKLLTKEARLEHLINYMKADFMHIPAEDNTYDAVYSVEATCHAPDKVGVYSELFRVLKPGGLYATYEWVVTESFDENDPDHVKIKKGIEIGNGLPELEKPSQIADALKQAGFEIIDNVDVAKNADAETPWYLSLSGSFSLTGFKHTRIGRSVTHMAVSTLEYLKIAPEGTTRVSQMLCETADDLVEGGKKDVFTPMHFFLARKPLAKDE

Take `CC(CCC=C1CC1)C1CC[C@@]2(C)C3=C(CCC12C)C1(C)CCC(O)C(C)(C)C1CC3` (stereo partly drawn) [DHL, 26,27-dehydrolanosterol]: the inhibition constant Ki (as a rule, the dissociation constant of the complex between target and ligand, obtained from inhibition or displacement) in experiment [1] amounted to 16 µM. In addition, in the experiment with Ac24-SMT [2] (C26 methyl monol product per inactivation event, 24-SMT), the “partition ratio (kcat/kinact)” value is about 1. Moreover, the “kinact (maximum rate of inactivation) of Ac24-SMT” value with Ac24-SMT [2] (preincubation with SAM 100 µM, 35°C) was about 0.4 min⁻¹. In addition, the “radioactivity associated with protein band of ∼39 kDa” value with Ac24-SMT [3] is recorded as under 90%. Further, the “MAC (complete inhibition of growth, minimum amoebicidal concentration)” value in experiment [4] is recorded as 15 µM. Further, in experiment [4] (Acanthamoeba castellanii, ATCC30010, Ac trophozoites), the IC50 (commonly the midpoint of a concentration-inhibition curve) stood at 6 µM.
